Data: ChEMBL document CHEMBL1132912, “Cytotoxic alpha-bromoacrylic derivatives of distamycin analogues modified at the amidino moiety” (Bioorg Med Chem Lett, 2000)

What was measured:
Assay type in all cases: functional
[1] = tested on: Mus musculus; assay: In vivo antileukemic activity was determined in mice infected with L1210 leukemia cell after intravenous of treated versus untreated mice 10)
[2] = tested on: Mus musculus; assay: In vivo antileukemic activity was determined on L1210 leukemia cell in mice (O.D.=optimal (non-toxic) dose <LD10)
[3] = tested on: Mus musculus; assay: In vivo antileukemic activity was determined in mice infected with L1210 leukemia cell after intravenous administration (T/C=median survival time of treated versus untreated mice 10)

Compound	T/C [1]	OD [2]	T/C [3]
C=C(Br)C(=O)Nc1cc(C(=O)Nc2cc(C(=O)Nc3cc(C(=O)Nc4cc(C(=O)NCCN=C(N)N)n(C)c4)n(C)c3)n(C)c2)n(C)c1.Cl	196%	1.56 mg/kg	–
C=C(Br)C(=O)Nc1cc(C(=O)Nc2cc(C(=O)Nc3cc(C(=O)Nc4cc(C(=O)NCCC(=N)NC#N)n(C)c4)n(C)c3)n(C)c2)n(C)c1.Cl	157%	3.13 mg/kg	–
C=C(Br)C(=O)Nc1cc(C(=O)Nc2cc(C(=O)Nc3cc(C(=O)Nc4cc(C(=O)NCCC#N)n(C)c4)n(C)c3)n(C)c2)n(C)c1.Cl	–	12.5 mg/kg	157%
C=C(Br)C(=O)Nc1cc(C(=O)Nc2cc(C(=O)Nc3cc(C(=O)Nc4cc(C(=O)NCC/C(=N/C)NC)n(C)c4)n(C)c3)n(C)c2)n(C)c1.Cl	258%	1.56 mg/kg	–
C=C(Br)C(=O)Nc1cc(C(=O)Nc2cc(C(=O)Nc3cc(C(=O)Nc4cc(C(=O)NCCC(=N)NC)n(C)c4)n(C)c3)n(C)c2)n(C)c1.Cl	150%	3.13 mg/kg	–
C=C(Br)C(=O)Nc1cc(C(=O)Nc2cc(C(=O)Nc3cc(C(=O)Nc4cc(C(=O)NCCC(=N)NO)n(C)c4)n(C)c3)n(C)c2)n(C)c1.Cl	186%	6.25 mg/kg	–
C=C(Br)C(=O)Nc1cc(C(=O)Nc2cc(C(=O)Nc3cc(C(=O)Nc4cc(C(=O)NCCC(N)=O)n(C)c4)n(C)c3)n(C)c2)n(C)c1.Cl	169%	6.25 mg/kg	–
